Tested on: pro-collagen I in normal human fibroblasts
Assay: Pro-collagen I content of normal human fibroblasts cultivated in a monolayer (Elisa on cell lysates)
Assay type: cell-based
Conditions: 10 ng/ml, 48 H incubation, p<0.05
From the text: The influence of the product on the expression of pro-collagen I is investigated in a model of normal human fibroblasts cultivated in a monolayer. The pro-collagen I is quantified using an Elisa (Enzyme Linked ImmunoSorbent Assay) kit on cell lysates. Furthermore, the proteins contained in the cell lysates are quantified by a spectrocolorimetric method according to the Bradford method. Included in the study is a negative control, consisting of the culture medium, and a positive control, represented by TGF-β (Transforming Growth Factor β) containing 10 ng/ml.
Collagens of types I, II, […], IV and V are synthesized from precursor molecules called “pro-collagen”. […]
The fibroblasts are incubated for 48 hours at 37° C., under humid atmosphere and 5% CO2 in a culture medium alone or in the presence of a reference product or increasing concentrations of active ingredients in the test. After 48 H of incubation of the test product, the type I pro-collagen and the total proteins present in the cell lysates are quantified. The results are obtained as a quantity (ng) of pro-collagen of type I C-Peptide per quantity (μg) of total proteins of the cell layer (means+/−standard deviation, S.D.). The statistical significance (*) of the differences observed between the “control” condition and each “treated” condition is evaluated by a One Way ANOVA on Ranks analysis followed by a Dunn's test (*: p<0.05). […]

With TGF-β the “Increase of the intrafibroblastic content of type I pro-collagen” value was 25%.
